Assay results from patent US4137414A, “5-Substituted-2-phenylbenzo[b]thiophene-3-alkylamines and related compounds” (G. D. Searle & Co., priority 1977, dated 1979).
Converted amounts (≈) assume the structure as drawn. Counter-ions that a name gives are not always drawn. Like-named read-outs stand apart in the source and are kept apart here.

Key:
[1] = target: dopamine receptors (3H-dopamine sites); test: Receptor Binding Assay: stereospecific binding of 3H-dopamine to calf caudate membranes; details: displacement of 5nM 3H-dopamine; calf caudate membrane homogenate; 37° C., 15 minutes
Protocol: (§1) The procedure for this assay is as follows:
(§2) Calf caudate nuclei were dissected from freshly obtained brains and stored frozen at -76° C.
(§3) Test compounds were added as 20 μl aliquots from stock solutions prepared in absolute ethanol or 0.1% ascorbic acid.
(§4) Immediately following all incubations, proteins were recovered on Whatman GF/B glass fiber filters under reduced pressure. Trapped membranes were solubilized off the filters using 1 ml NCS tissue solubilizer (Amersham/Searle Corp.) at 50° C. for 1 hour. Then, pH was adjusted by adding 0.1 ml glacial acetic acid, 10 ml PCS (Amersham/Searle) added and samples analyzed for membrane-bound radioactivity using a Mark II liquid scintillation counter (Searle Analytical, Inc.).
(§5) IC50 values were determined from log-probit plots using 4-6 concentrations of each compound.
(§6) There as two indications from the assay data as to whether a compound is a probable neuroleptic. Firstly, it must be a dopamine antagonist. […] In other words, it must have a high ^3 H-DA/^3 H-HALO, IC50 ratio.

[2] = target: T1, dopamine receptors (3H-Haloperidol sites) (Bos taurus, UniProt P20288); details: for antagonist ratios: in words, compared with known neuroleptics
T1 sequence (P20288 whole entry): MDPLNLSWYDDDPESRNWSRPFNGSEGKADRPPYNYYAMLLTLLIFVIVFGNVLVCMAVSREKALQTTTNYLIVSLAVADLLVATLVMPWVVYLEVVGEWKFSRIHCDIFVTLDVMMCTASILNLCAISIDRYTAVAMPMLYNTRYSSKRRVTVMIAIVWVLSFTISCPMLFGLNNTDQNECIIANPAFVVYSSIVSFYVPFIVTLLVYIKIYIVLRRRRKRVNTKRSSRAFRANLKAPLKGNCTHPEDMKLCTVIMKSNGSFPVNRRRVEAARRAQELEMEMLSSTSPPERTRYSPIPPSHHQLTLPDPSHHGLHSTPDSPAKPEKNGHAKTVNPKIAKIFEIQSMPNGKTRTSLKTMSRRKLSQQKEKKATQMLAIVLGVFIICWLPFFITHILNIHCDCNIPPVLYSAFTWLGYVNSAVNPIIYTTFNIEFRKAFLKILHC
Protocol: as §1, §2, §3, §4, §5, §6

[3] = target: T1, dopamine receptors (3H-Haloperidol sites); test: biochemical
Protocol: as §1, §2, §3, §4, §5, §6

[4] = system: Escherialla coli ATCC 8739; test: Anti-bacterial assay against aerobic bacteria (serial dilution in nutrient broth); format: cell-based; details: no growth of organism; aerobic incubation 20-24 hr. at 37° C.; tested at 100, 10, 1, 0.1 mcgm per ml; read-out: active (minimum concentration at which a compound is active)
Protocol: Evidence of the anti-bacterial utility of the instant compounds vis-a-vis aerobic bacteria is provided by the following standardized test. Nutrient broth (manufactured by Baltimore Biological Laboratories) is prepared by recommended by the manufacturer, sterilized, and inoculated with Escherialla coli ATCC 8739 q.s. one million cells per ml, determined spectrophotometrically. Meanwhile, compound is heated in sterile distilled water at a concentration of 1000 mcgm per ml for 20 minutes at 80° C. This compound preparation is serially diluted and mixed with sufficient inoculated medium to afford concentrations of 100, 10, 1, and 0.1 mcgm of compound per ml. The mixtures thus obtained are incubated aerobically for 20-24 hr. at 37° C. and then examined grossly for growth of the organism. Controls are provided by concurrent incubations identical with the above except that (1) reference standards (4.3, 0.43, 0.043, and 0.0043 mcgm per ml of streptomycin sulfate and 6667, 667, 67, and 7 units of potassium penicillin G) are substituted for compound and (2) neither compound nor reference standard is present. Compounds are considered active if, at the maximum concentrations tested, no growth of organism is observed and no aberrancy is apparent in respect of the controls. Potency is expressed as the minimum concentration at which a compound is active.

SMILES	IC50 [1]	Ratio (^3 H-DA/^3 H-HALO IC50 ratio) [2]	IC50 [3]	MIC [4]	antagonist ratios [2]	Ratio (^3 H-DA/^3 H-HALO IC50 ratio) ([2]; IC50 3H-dopamine / IC50 3H-Haloperidol, high ratio indicates dopamine antagonist)
OCCN1CCN(Cc2c(-c3ccccc3)sc3ccc(Cl)cc23)CC1 [1-[(5-chloro-2-phenylbenzo[b]thiophen-3-yl)methyl]-4-ethanol piperazine dihydrochloride]				100 µg/mL		
Cl.Clc1ccc2sc(-c3ccccc3)c(CCN3CCCC3)c2c1 [1[2-(5-chloro-2-phenylbenzo[b]thiophen-3-yl)ethyl]pyrrolidine hydrochloride]	48 µM		0.65 µM		comparable to clozapine and chloropromazine	74
CN1CCN(CCc2c(-c3ccccc3)sc3ccc(Cl)cc23)CC1 [1-[3-(5-chloro-2-phenylbenzo[b]thiophen-3-yl)ethyl]-4-methylpiperazine dihydrochoride]				10 µg/mL (≈ 27 µM)		
CN1CCN(CCCc2c(-c3ccccc3)sc3ccc(Cl)cc23)CC1.Cl.Cl [1-[3-(5-chloro-2-phenylbenzo[b]thiophen-3-yl)propyl]-4-methylpiperazine dihydrochloride]				100 µg/mL		

Continued, in another order:

IC50 [1]	Ratio (^3 H-DA/^3 H-HALO IC50 ratio) [2]	IC50 [3]	MIC [4]	SMILES	antagonist ratios [2]	Ratio (^3 H-DA/^3 H-HALO IC50 ratio) ([2]; IC50 3H-dopamine / IC50 3H-Haloperidol, high ratio indicates dopamine antagonist)
48 µM	137	0.35 µM		CN(C)CCCc1c(-c2ccccc2)sc2ccc(Cl)cc12 [5-chloro-2-phenylbenzo[b]thiophene-3-N,N-dimethylpropanamine hydrochloride]	comparable to clozapine and chloropromazine	
12 µM	21	0.62 µM		CN(C)CCc1c(-c2ccccc2)sc2ccccc12 [2-phenylbenzo[b]thiophene-3-N,N-dimethylethanamine hydrochloride]	comparable to clozapine and chloropromazine	
6 µM	50	0.12 µM		CCN(CC)CCc1c(-c2ccccc2)sc2ccc(Cl)cc12 [5-chloro-2-phenylbenzo[b]thiophene-3-N,N-diethylethanamine hydrochloride]	comparable to clozapine and chloropromazine	
20 µM	31	0.65 µM	100 µg/mL	CN(C)CCc1c(-c2ccccc2)sc2ccc(Cl)cc12 [5-chloro-2-phenylbenzo[b]thiophene-3-N,N-dimethylethanamine hydrochloride]	comparable to clozapine and chloropromazine	
			10 µg/mL	Cl.NCCc1c(-c2ccccc2)sc2ccc(Cl)cc12 [5-chloro-2-phenylbenzo[b]thiophene-3-ethanamine hydrochloride]		
